Test results reported in patent US20210278408A1, “METHODS OF TREATMENT OF CANCER WITH SUBSTITUTED PYRROLE AND PYRAZOLE COMPOUNDS AND DIAGNOSIS OF CANCERS SUSCEPTIBLE TO TREATMENT WITH SUBSTITUTED PYRROLE AND PYRAZOLE COMPOUNDS” (Bantam Pharmaceutical, LLC, priority 2018, published 2021).
Structures can show the parent of a compound that is named as a salt. Where two headings read alike, the source gives them in different places.

Tested on: BJAB (malignant human B-cell-line)
Assay: BJAB cell proliferation
Assay type: cell-based
Set-up: scale not given here
Source text: In certain embodiments, the therapeutic compound is one of the compounds of the compound table below. […] In certain embodiments, the therapeutic compound is a compound having an activity as “A,” “B” or “C” in the table below. In certain embodiments, the therapeutic compound is a compound having an activity as “A” or “B” in the table below. In certain embodiments, the therapeutic compound is a compound having an activity as “A” in the table below.
In certain embodiments, the therapeutic compound is one of the compounds of the compound table below, optionally provided as a pharmaceutically-acceptable salt or N-oxide, and/or a solvate or hydrate. […] In certain embodiments, the therapeutic compound is a compound having an activity as “A,” “B” or “C” in the table below. In certain embodiments, the therapeutic compound is a compound having an activity as “A” or “B” in the table below. In certain embodiments, the therapeutic compound is a compound having an activity as “A” in the table below.

[1] = BJAB (malignant human B-cell-line) cell proliferation, EC50, read-out: BJAB

Compound	EC50 [1] [µM]	other results
COc1nn(-c2nc(-c3ccc(C(F)(F)F)cc3)c(SC(C)C)s2)c(C(=O)O)c1-c1cccc(F)c1 [Compound B13, 4-(3-fluorophenyl)-1-(5-(isopropylthio)-4-(4-(trifluoromethyl)phenyl)thiazol-2-yl)-3-methoxy-1H-pyrazole-5-carboxylic acid]	1 to 5	–
COCCOCC(=O)N(C)c1ccc(-c2sc(-n3nc(C)c(-c4cccc(F)c4)c3C(=O)O)nc2-c2ccc(C(F)(F)F)cc2)cc1 [Compound B56, 4-(3-fluorophenyl)-1-(5-(4-(2-(2-methoxyethoxy)-N-methylacetamido)phenyl)-4-(4-(trifluoromethyl)phenyl)thiazol-2-yl)-3-methyl-1H-pyrazole-5-carboxylic acid]	> 20	–
Cc1nn(-c2nc(N3CCC(C(C)(C)C)CC3)c(SC(C)C)s2)c(C(=O)O)c1-c1cccc(F)c1 [Compound B40, 1-(4-(4-(tert-butyl)piperidin-1-yl)-5-(isopropylthio)thiazol-2-yl)-4-(3-fluorophenyl)-3-methyl-1H-pyrazole-5-carboxylic acid]	< 1	–
COCCN(C)c1sc(-n2nc(C)c(-c3cccc(F)c3)c2C(=O)O)nc1-c1ccc(C(F)(F)F)cc1 [Compound B31, 4-(3-fluorophenyl)-1-(5-((2-methoxyethyl)(methyl)amino)-4-(4-(trifluoromethyl)phenyl)thiazol-2-yl)-3-methyl-1H-pyrazole-5-carboxylic acid]	1 to 5	–
COCCN(C)C(=O)CCc1sc(-n2nc(C)c(-c3cccc(F)c3)c2C(=O)O)nc1-c1ccc(C(F)(F)F)cc1 [Compound B54, 4-(3-fluorophenyl)-1-(5-(3-((2-methoxyethyl)(methyl)amino)-3-oxopropyl)-4-(4-(trifluoromethyl)phenyl)thiazol-2-yl)-3-methyl-1H-pyrazole-5-carboxylic acid]	> 20	–
Cc1nn(-c2nc(N3CCC(C)(C)CC3)c(SC(C)C)s2)c(C(=O)O)c1-c1cccc(F)c1 [Compound B32, 1-(4-(4,4-dimethylpiperidin-1-yl)-5-(isopropylthio)thiazol-2-yl)-4-(3-fluorophenyl)-3-methyl-1H-pyrazole-5-carboxylic acid]	< 1	–
COCCNC(=O)c1ccc(-c2sc(-n3nc(C)c(-c4cccc(F)c4)c3C(=O)O)nc2-c2ccc(C(F)(F)F)cc2)cc1 [Compound B49, 4-(3-fluorophenyl)-1-(5-(4-((2-methoxyethyl)carbamoyl)phenyl)-4-(4-(trifluoromethyl)phenyl)thiazol-2-yl)-3-methyl-1H-pyrazole-5-carboxylic acid]	> 20	–
Cc1nn(-c2nc(-c3ccc(Cl)c(Cl)c3)c(SC(C)C)s2)c(CO)c1-c1ccccc1 [Compound A88, (1-(4-(3,4-dichlorophenyl)-5-(isopropylthio)thiazol-2-yl)-3-methyl-4-phenyl-1H-pyrazol-5-yl)MeOH]	–	EC50 (BJAB cell proliferation, read-out: EC50): > 25 µM
Cc1nn(-c2nc(C3=CCC(C)(C)CC3)c(SC(C)C)s2)c(C(=O)O)c1-c1cccc(F)c1 [Compound B6, 1-(4-(4,4-dimethylcyclohex-1-en-1-yl)-5-(isopropylthio)thiazol-2-yl)-4-(3-fluorophenyl)-3-methyl-1H-pyrazole-5-carboxylic acid]	< 1	–
Cc1cc(C(=O)O)n(-c2nc(-c3ccc(Cl)c(OC4COC4)c3)c(SC(C)C)s2)n1 [Compound B2, 1-(4-(4-chloro-3-(oxetan-3-yloxy)phenyl)-5-(isopropylthio)thiazol-2-yl)-3-methyl-1H-pyrazole-5-carboxylic acid]	> 40	–
CC(C)Sc1sc(-n2nc(O)c(-c3cccc(F)c3)c2C(=O)O)nc1-c1ccc(C(F)(F)F)cc1 [Compound B15, 4-(3-fluorophenyl)-3-hydroxy-1-(5-(isopropylthio)-4-(4-(trifluoromethyl)phenyl)thiazol-2-yl)-1H-pyrazole-5-carboxylic acid]	> 20	–
Cc1nn(-c2nc(-c3ccc(C(F)(F)F)cc3)c(CC(C)C)s2)c(C(=O)O)c1-c1cccc(F)c1 [Compound B22, 4-(3-fluorophenyl)-1-(5-isobutyl-4-(4-(trifluoromethyl)phenyl)thiazol-2-yl)-3-methyl-1H-pyrazole-5-carboxylic acid]	< 1	–
Cc1nn(-c2nc(N3CCNCC3)c(SC(C)C)s2)c(C(=O)O)c1-c1cccc(F)c1 [Compound B35, 4-(3-fluorophenyl)-1-(5-(isopropylthio)-4-(piperazin-1-yl)thiazol-2-yl)-3-methyl-1H-pyrazole-5-carboxylic acid hydrochloric acid salt]	> 20	–
Cc1nn(-c2nc(-c3ccc(Cl)c(Cl)c3)c(SC(C)C)s2)c(C(=O)O)c1-c1cccc(F)c1 [Compound A151, 1-(4-(3,4-dichlorophenyl)-5-(isopropylthio)thiazol-2-yl)-4-(3-fluorophenyl)-3-methyl-1H-pyrazole-5-carboxylic acid]	–	EC50 (BJAB cell proliferation): A, B
Cc1nn(-c2nc(-c3ccc(C(F)(F)F)cc3)c(CO)s2)c(C(=O)O)c1-c1cccc(F)c1 [Compound B60, 4-(3-fluorophenyl)-1-(5-(hydroxymethyl)-4-(4-(trifluoromethyl)phenyl)thiazol-2-yl)-3-methyl-1H-pyrazole-5-carboxylic acid]	> 20	–
Cc1nn(-c2nc(N3CCC(C(F)(F)F)CC3)c(-c3ccc(C(F)(F)F)cc3)s2)c(C(=O)O)c1-c1cccc(F)c1 [Compound B61, 4-(3-fluorophenyl)-3-methyl-1-(5-(4-(trifluoromethyl)phenyl)-4-(4-(trifluoromethyl)piperidin-1-yl)thiazol-2-yl)-1H-pyrazole-5-carboxylic acid]	< 1	–
COC(=O)c1c(-c2cccc(F)c2)c(C)nn1-c1nc(C2=CCC(C(F)(F)F)CC2)c(SC(C)C)s1 (stereo not shown) [Compound B20, methyl 4-(3-fluorophenyl)-1-(5-(isopropylthio)-4-(4-(trifluoromethyl)cyclohex-1-en-1-yl)thiazol-2-yl)-3-methyl-1H-pyrazole-5-carboxylate]	< 1	–
Cc1nn(-c2nc(-c3ccc(C(F)(F)F)cc3)c(C(C)O)s2)c(C(=O)O)c1-c1cccc(F)c1 (stereo not shown) [Compound B63, 4-(3-fluorophenyl)-1-(5-(1-hydroxyethyl)-4-(4-(trifluoromethyl)phenyl)thiazol-2-yl)-3-methyl-1H-pyrazole-5-carboxylic acid]	> 20	–
COC1(C(F)(F)F)CCN(c2nc(-n3nc(C)c(-c4cccc(F)c4)c3C(=O)O)sc2SC(C)C)CC1 [Compound B42, 4-(3-fluorophenyl)-1-(5-(isopropylthio)-4-(4-methoxy-4-(trifluoromethyl)piperidin-1-yl)thiazol-2-yl)-3-methyl-1H-pyrazole-5-carboxylic acid]	< 1	–
CC(=O)N1CCN(c2nc(-n3nc(C)c(-c4cccc(F)c4)c3C(=O)O)sc2SC(C)C)CC1 [Compound B27, 1-(4-(4-acetylpiperazin-1-yl)-5-(isopropylthio)thiazol-2-yl)-4-(3-fluorophenyl)-3-methyl-1H-pyrazole-5-carboxylic acid]	> 20	–
Cc1nn(-c2nc(-c3ccc(C(F)(F)F)cc3)c(SC(C)C)s2)c(C)c1-c1cccc(F)c1 [Compound B10, 2-(4-(3-fluorophenyl)-3,5-dimethyl-1H-pyrazol-1-yl)-5-(isopropylthio)-4-(4-(trifluoromethyl)phenyl)thiazole]	> 40	–
CNC(=O)CCc1sc(-n2nc(C)c(-c3cccc(F)c3)c2C(=O)O)nc1-c1ccc(C(F)(F)F)cc1 [Compound B47, 4-(3-fluorophenyl)-3-methyl-1-(5-(3-(methylamino)-3-oxopropyl)-4-(4-(trifluoromethyl)phenyl)thiazol-2-yl)-1H-pyrazole-5-carboxylic acid]	> 20	–
Cc1nn(-c2nc(N3CCN(C(=O)OC(C)(C)C)CC3)c(SC(C)C)s2)c(C(=O)O)c1-c1cccc(F)c1 [Compound B33, 1-(4-(4-(tert-butoxycarbonyl)piperazin-1-yl)-5-(isopropylthio)thiazol-2-yl)-4-(3-fluorophenyl)-3-methyl-1H-pyrazole-5-carboxylic acid]	> 20	–
Cc1nn(-c2nc(N3CCOCC3)c(SC(C)C)s2)c(C(=O)O)c1-c1cccc(F)c1 [Compound B14, 4-(3-fluorophenyl)-1-(5-(isopropylthio)-4-morpholinothiazol-2-yl)-3-methyl-1H-pyrazole-5-carboxylic acid]	> 40	–
Cc1nn(-c2nc(-c3ccc(Cl)c(C(=O)N4CCOCC4)c3)c(SC(C)C)s2)c(C(=O)O)c1-c1cccc(F)c1 [Compound B8, 1-(4-(4-chloro-3-(morpholine-4-carbonyl)phenyl)-5-(isopropylthio)thiazol-2-yl)-4-(3-fluorophenyl)-3-methyl-1H-pyrazole-5-carboxylic acid]	> 40	–
COCCN(C)C(=O)c1ccc(-c2sc(-n3nc(C)c(-c4cccc(F)c4)c3C(=O)O)nc2-c2ccc(C(F)(F)F)cc2)cc1 [Compound B50, 4-(3-fluorophenyl)-1-(5-(4-((2-methoxyethyl)(methyl)carbamoyl)phenyl)-4-(4-(trifluoromethyl)phenyl)thiazol-2-yl)-3-methyl-1H-pyrazole-5-carboxylic acid]	> 20	–
Cc1nn(-c2nc(-c3ccc(C(F)(F)F)cc3)c(CCO)s2)c(C(=O)O)c1-c1cccc(F)c1 [Compound B64, 4-(3-fluorophenyl)-1-(5-(2-hydroxyethyl)-4-(4-(trifluoromethyl)phenyl)thiazol-2-yl)-3-methyl-1H-pyrazole-5-carboxylic acid]	> 20	–
Cc1nn(-c2nc(N3CCCCC3)c(SC(C)C)s2)c(C(=O)O)c1-c1cccc(F)c1 [Compound B11, 4-(3-fluorophenyl)-1-(5-(isopropylthio)-4-(piperidin-1-yl)thiazol-2-yl)-3-methyl-1H-pyrazole-5-carboxylic acid]	10 to 25	–
